Results: ChEMBL document CHEMBL1142146, “Quinupristin-dalfopristin nonsusceptibility in pneumococci from sickle cell disease patients” (2007)
Values after ≈ are worked out from the molar mass of the structure shown.

Key:
Format in all cases: functional
Streptococcus pneumoniae [1] = assay: Antibacterial activity against Pneumococcus DAW8 isolated from sickle cell disease patient
Streptococcus pneumoniae [2] = assay: Antibacterial activity against Pneumococcus DAW6 isolated from sickle cell disease patient
Streptococcus pneumoniae [3] = assay: Antibacterial activity against Pneumococcus DAW2 isolated from sickle cell disease patient
Streptococcus pneumoniae [4] = assay: Antibacterial activity against Pneumococcus DAW9 isolated from sickle cell disease patient
Streptococcus pneumoniae [5] = assay: Antibacterial activity against Pneumococcus DAW12 isolated from sickle cell disease patient
Streptococcus pneumoniae [6] = assay: Antibacterial activity against Pneumococcus DAW13 isolated from sickle cell disease patient
Streptococcus pneumoniae [7] = assay: Antibacterial activity against Pneumococcus DAW14 isolated from sickle cell disease patient
Streptococcus pneumoniae [8] = assay: Antibacterial activity against Pneumococcus DAW15 isolated from sickle cell disease patient
Streptococcus pneumoniae [9] = assay: Antibacterial activity against Pneumococcus DAW19 isolated from sickle cell disease patient
Streptococcus pneumoniae [10] = assay: Antibacterial activity against Pneumococcus DAW22 isolated from sickle cell disease patient
Streptococcus pneumoniae [11] = assay: Antibacterial activity against Pneumococcus DAW24 isolated from sickle cell disease patient
Streptococcus pneumoniae [12] = assay: Antibacterial activity against Pneumococcus DAW26 isolated from sickle cell disease patient
Streptococcus pneumoniae [13] = assay: Antibacterial activity against Pneumococcus DAW27 isolated from sickle cell disease patient
Streptococcus pneumoniae [14] = assay: Antibacterial activity against Pneumococcus DAW51 isolated from sickle cell disease patient
Streptococcus pneumoniae [15] = assay: Antibacterial activity against Pneumococcus DAW53 isolated from sickle cell disease patient
Streptococcus pneumoniae [16] = assay: Antibacterial activity against Pneumococcus DAW57 isolated from sickle cell disease patient
Streptococcus pneumoniae [17] = assay: Antibacterial activity against Pneumococcus DAW61 isolated from sickle cell disease patient
Streptococcus pneumoniae [18] = assay: Antibacterial activity against Pneumococcus DAW62 isolated from sickle cell disease patient
Streptococcus pneumoniae [19] = assay: Antibacterial activity against Pneumococcus DAW65 isolated from sickle cell disease patient
Streptococcus pneumoniae [20] = assay: Antibacterial activity against Pneumococcus DAW66 isolated from sickle cell disease patient
Streptococcus pneumoniae [21] = assay: Antibacterial activity against Pneumococcus DAW67 isolated from sickle cell disease patient
Streptococcus pneumoniae [22] = assay: Antibacterial activity against Pneumococcus DAW68 isolated from sickle cell disease patient
Streptococcus pneumoniae [23] = assay: Antibacterial activity against Pneumococcus DAW70 isolated from sickle cell disease patient
Streptococcus pneumoniae [24] = assay: Antibacterial activity against Pneumococcus DAW75 isolated from sickle cell disease patient
Streptococcus pneumoniae [25] = assay: Antibacterial activity against Pneumococcus DAW86 isolated from sickle cell disease patient
Streptococcus pneumoniae [26] = assay: Antibacterial activity against Pneumococcus CDC001 isolated from sickle cell disease patient
Streptococcus pneumoniae [27] = assay: Antibacterial activity against Pneumococcus CDC013 isolated from sickle cell disease patient
Streptococcus pneumoniae [28] = assay: Antibacterial activity against Pneumococcus CDC018 isolated from sickle cell disease patient
Streptococcus pneumoniae [29] = assay: Antibacterial activity against Pneumococcus CDC020 isolated from sickle cell disease patient
Streptococcus pneumoniae [30] = assay: Antibacterial activity against Pneumococcus CDC023 isolated from sickle cell disease patient
Streptococcus pneumoniae [31] = assay: Antibacterial activity against Pneumococcus CDC050 isolated from sickle cell disease patient
Streptococcus pneumoniae [32] = assay: Antibacterial activity against Pneumococcus CDC063 isolated from sickle cell disease patient
Streptococcus pneumoniae [33] = assay: Antibacterial activity against Pneumococcus CDC068 isolated from sickle cell disease patient

Structure (SMILES) | MIC (Streptococcus pneumoniae [1]) | MIC (Streptococcus pneumoniae [2]) | MIC (Streptococcus pneumoniae [3]) | MIC (Streptococcus pneumoniae [4]) | MIC (Streptococcus pneumoniae [5]) | MIC (Streptococcus pneumoniae [6]) | MIC (Streptococcus pneumoniae [7]) | MIC (Streptococcus pneumoniae [8]) | MIC (Streptococcus pneumoniae [9]) | MIC (Streptococcus pneumoniae [10]) | MIC (Streptococcus pneumoniae [11]) | MIC (Streptococcus pneumoniae [12]) | MIC (Streptococcus pneumoniae [13]) | MIC (Streptococcus pneumoniae [14]) | MIC (Streptococcus pneumoniae [15]) | MIC (Streptococcus pneumoniae [16]) | MIC (Streptococcus pneumoniae [17]) | MIC (Streptococcus pneumoniae [19]) | MIC (Streptococcus pneumoniae [20]) | MIC (Streptococcus pneumoniae [23]) | other results
CC[C@H]1OC(=O)[C@H](C)[C@@H](O[C@H]2C[C@@](C)(OC)[C@@H](O)[C@H](C)O2)[C@H](C)[C@@H](O[C@@H]2O[C@H](C)C[C@H](N(C)C)[C@H]2O)[C@](C)(O)C[C@@H](C)C(=O)[C@H](C)[C@@H](O)[C@]1(C)O [ERYTHROMYCIN] | 0.125 µg/mL (≈ 0.17 µM) | 0.25 µg/mL (≈ 0.341 µM) | 0.125 µg/mL (≈ 0.17 µM) | 256 µg/mL (≈ 349 µM) | 0.19 µg/mL (≈ 0.259 µM) | 4 µg/mL (≈ 5.45 µM) | 0.19 µg/mL (≈ 0.259 µM) | 0.19 µg/mL (≈ 0.259 µM) | 24 µg/mL (≈ 32.7 µM) | 256 µg/mL (≈ 349 µM) | 0.125 µg/mL (≈ 0.17 µM) | 0.125 µg/mL (≈ 0.17 µM) | 256 µg/mL (≈ 349 µM) | 0.19 µg/mL (≈ 0.259 µM) | 0.25 µg/mL (≈ 0.341 µM) | 256 µg/mL (≈ 349 µM) | 256 µg/mL (≈ 349 µM) | 0.19 µg/mL (≈ 0.259 µM) | 0.19 µg/mL (≈ 0.259 µM) | 0.19 µg/mL (≈ 0.259 µM) | MIC (Streptococcus pneumoniae [18]): 0.125 µg/mL (≈ 0.17 µM); MIC (Streptococcus pneumoniae [21]): 0.125 µg/mL (≈ 0.17 µM); MIC (Streptococcus pneumoniae [22]): 0.125 µg/mL (≈ 0.17 µM); MIC (Streptococcus pneumoniae [24]): 0.19 µg/mL (≈ 0.259 µM); MIC (Streptococcus pneumoniae [25]): 0.19 µg/mL (≈ 0.259 µM); MIC (Streptococcus pneumoniae [26]): 0.19 µg/mL (≈ 0.259 µM); MIC (Streptococcus pneumoniae [27]): 0.125 µg/mL (≈ 0.17 µM); MIC (Streptococcus pneumoniae [28]): 256 µg/mL (≈ 349 µM); MIC (Streptococcus pneumoniae [29]): 256 µg/mL (≈ 349 µM); MIC (Streptococcus pneumoniae [30]): 0.125 µg/mL (≈ 0.17 µM); MIC (Streptococcus pneumoniae [31]): 0.25 µg/mL (≈ 0.341 µM); MIC (Streptococcus pneumoniae [32]): 32 µg/mL (≈ 43.6 µM); MIC (Streptococcus pneumoniae [33]): 0.19 µg/mL (≈ 0.259 µM)
CCC[C@@H]1C[C@@H](C(=O)N[C@@H]([C@H]2O[C@H](SC)[C@H](O)[C@@H](O)[C@H]2O)[C@H](C)Cl)N(C)C1 [CLINDAMYCIN] | 0.25 µg/mL (≈ 0.588 µM) | 0.038 µg/mL (≈ 0.0894 µM) | 0.25 µg/mL (≈ 0.588 µM) | 256 µg/mL (≈ 602 µM) | 0.25 µg/mL (≈ 0.588 µM) | 0.25 µg/mL (≈ 0.588 µM) | 0.25 µg/mL (≈ 0.588 µM) | 0.38 µg/mL (≈ 0.894 µM) | 0.19 µg/mL (≈ 0.447 µM) | 256 µg/mL (≈ 602 µM) | 0.25 µg/mL (≈ 0.588 µM) | 0.25 µg/mL (≈ 0.588 µM) | 256 µg/mL (≈ 602 µM) | 0.25 µg/mL (≈ 0.588 µM) | 0.25 µg/mL (≈ 0.588 µM) | 256 µg/mL (≈ 602 µM) | 0.5 µg/mL (≈ 1.18 µM) | 0.25 µg/mL (≈ 0.588 µM) | 0.25 µg/mL (≈ 0.588 µM) | 0.38 µg/mL (≈ 0.894 µM) | MIC (Streptococcus pneumoniae [24]): 0.125 µg/mL (≈ 0.294 µM); MIC (Streptococcus pneumoniae [25]): 0.25 µg/mL (≈ 0.588 µM); MIC (Streptococcus pneumoniae [26]): 0.19 µg/mL (≈ 0.447 µM); MIC (Streptococcus pneumoniae [28]): 256 µg/mL (≈ 602 µM); MIC (Streptococcus pneumoniae [30]): 0.125 µg/mL (≈ 0.294 µM); MIC (Streptococcus pneumoniae [31]): 0.25 µg/mL (≈ 0.588 µM); MIC (Streptococcus pneumoniae [32]): 0.25 µg/mL (≈ 0.588 µM); MIC (Streptococcus pneumoniae [33]): 0.25 µg/mL (≈ 0.588 µM)
